# Where “and” joins values, the source holds several entries; their conditions need not be identical. Equal entries are not always repeated. Entries after “also recorded” stand apart in the source; their conditions may differ.
# Columns and labels:
# [1] = tested on: hypertrophy marker MYHCB in H9C2 rat cells; assay: Relative expression of hypertrophy marker MYHCB in H9C2 rat cells after vasopressin ± BAY 60-7550 (real-time PCR); format: cell-based
# Description: FIG. 2: Relative expression of the hypertrophy marker MYHCB in H9C2 rat cells after stimulation by vasopressin±PDE2A inhibitor BAY 60-7550.
# The expression of ANP and MYHCB relative to L32 ribosomal protein in H9C2 cells after incubation with vasopressin (0.1 micromol, 1 micromal, 10 micromol) for 72 h is shown. […] (Mean relative expression rE from a duplicate determination).
# (§1) The relative expression of PDE2A in H9c2 rat cells is measured by quantifying the mRNA using the real-time polymerase chain reaction. Compared with conventional PCR, the real-time PCR has the advantage of more accurate quantification by introducing an additional, fluorescence-labeled oligonucleotide. This so-called probe contains at the 5′ end the fluorescent dye FAM (6-carboy-fluorescein) and at the 3′ end the fluorescence quencher TAMRA (6-carboxy-tetramethylrhodamine). During the polymerase chain reaction, the fluorescent dye FAM is cleaved off the probe by the 5′-exonuclease activity of the Taq polymerase in the TaqMan PCR, and thus the previously quenched fluorescence signal is obtained. The number of the cycle at which the fluorescence intensity is about 10 standard deviations above the background fluorescence is recorded as the so-called threshold [treshold cyle (Ct value)].
# Total RNA is isolated from the H9c2 rat cardiomyocytes from a 6-well (about 4×10^5 cells) using an RNeasy Kit (Qiagen Hilden). 1 μg portions of total RNA per tissue are reacted with 1 unit of DNase I (from Invitrogen) at room temperature for 15 min to remove contamination by genomic DNA. The Dnase I is inactivated by adding 1 μl of EDTA (25 mM) and subsequent heating at 65° C. (10 min).
# Subsequently, cDNA synthesis is carried out in the same reaction mixture in accordance with the instruction for the “SUPERSCRIPT-II RT cDNA synthesis kit” (from Invitrogen), and the reaction volume is made up to 200 μl with distilled water. For the PCR, 7.5 μl of primer and probe mixture and 12.5 μl of TaqMan reaction solution (qPCR Mastermix, from Eurogentec) are added to 5 μl portions of the diluted cDNA solution. The final concentration of the primers is 300 nM in each case, and that of the probe is 150 nM. The sequence of the forward and reverse primer for the rat PDE2A is: 5′-[…]-3′ (SEQ ID NO: 3) and 5′-[…]-3′ (SEQ ID NO: 4), and the sequence of the fluorescent probe is 5′-6FAM-[…]-TAMRA-3′ (SEQ ID NO: 5). The sequence of the forward and reverse primer for r-MYHCB is: 5′-[…]-3′ (SEQ ID NO: 6) and 5′-[…]-3′ (SEQ ID NO: 7), and the sequence of the fluorescent probe is 5′-6FAM-[…]-TAMRA-3′ (SEQ ID NO: 8).
# The PCR takes place on an ABI Prism SDS-7700 apparatus (from Applied Biosystems) in accordance with the manufacturer's instructions. 40 cycles are carried out in this case. The Ct (see above) which is obtained for the respective gene in the relevant cDNA corresponds to the cycle in which the fluorescence intensity of the liberated probe is about 10 standard deviations above the background signal. A lower Ct value thus means an earlier start of amplification, i.e. the original sample contains more mRNA. To compensate for any variations in the cDNA synthesis, the expression of a so-called “housekeeping gene”, which should always be expressed to the same extent irrespective of the treatment of the cells, is also analyzed in all the investigated samples. L32 ribosomal protein is used to standardize PDE2A expression in H9c2 cells. The sequence of the forward and reverse primer for rat L32 is 5′-[…]-3′ (SEQ ID NO: 9), and 5′-[…]-3′ (SEQ ID NO: 10), and the sequence of the probe is 5′-6FAM-[…]-TAMRA-3′ (SEQ ID NO: 11). The data are analyzed in the following way: the dCt value is calculated for each RNA. The dCt value is the difference between the Ct values for the candidate gene (i.e.: MYHCB or PDE2A) and the Ct value of the housekeeping gene in the respective tissue. […]
# [2] = tested on: mice (C57b1/6 strain), isoprenaline-induced cardiac hypertrophy; assay: Mouse isoprenaline hypertrophy model, heart weight/body weight ratio; format: in vivo; details: for Effect on heart weight:body weight ratio (HW:BW) (in words): with isoprenaline 2 mg/kg/d s.c.
# Description: (§2) In order to verify that incubation of H9c2 cells with the PDE2A inhibitor BAY 60-7550 also leads to an increase in the intracellular cGMP level and thus has an antihypertrophic effect, the intracellular cGMP content was determined by EIA after stimulation of cGMP synthesis by ANP in the presence of the PDE2A inhibitor BAY 60-7550. […] To verify the in vitro findings, the antihypertrophic effect of the PDE2 inhibitor BAY 60-7550 was investigated in vivo in a mouse hypertrophy model. For this purpose, mice of the C57BL6 strain received subcutaneous administration of 2 mg/kg isoprenaline once a day and, as positive control, 10 mg/kg enalapril administered via the drinking water in addition to the isoprenaline.
# FIG. 4: Alteration in the heart weight compared with the body weight (HW:BW) by subcutaneous administration of isoprenaline (2 mg/kg/d) and the influence of enalapril as positive control […] in the drinking water) and of the PDE2A inhibitor BAY 60-7550. The heart weight:body weight ratio as a function of the treatment is shown.
# Assay of PDE2A inhibitors for anti-hypertrophic effect in vivo:
# The antihypertrophic effect of the PDE2A inhibitor BAY 60-7550 is assayed by using the so-called mouse isoprenaline model [ ]. This involves 8 mice (C57b1/6 strain) per dose group receiving subcutaneous administration of isoprenaline at a dose of 2 mg/kg/d for 5 days, while the control group receives a saline solution as vehicle control. As positive control, in addition to the isoprenaline, the ACE inhibitor enalapril was administered in a dose of 10 mg/kg/d via the drinking water to one group, while two further groups received in addition to the isoprenaline the PDE2A inhibitor BAY 60-7550 administered intraperitoneally with a dose of 10 mg/kg/d. As a measure of the degree of cardiac hypertrophy, the heart weight/body weight (HW:BW) ratio is determined after 5 d, and the relation of the effect of the substances to the effect of isoprenaline is found.
# [3] = tested on: intracellular cGMP in H9c2 rat cardiomyocytes; assay: Intracellular cGMP content in H9c2 cells after ANP stimulation (EIA); format: cell-based; details: 15 min, FIG. 3
# Description: as §2
# FIG. 3: Change in the intracellular cGMP concentration in H9c2 rat cardiomyocytes after stimulation with ANP in the presence of various concentrations of the PDE2A inhibitor BAY 60-7550. The cGMP content in the cells after incubation with ANP and the stated dosages of the PDE2A inhibitor BAY 60-7550 for 15 min is shown.
# Determination of the cGMP Content in H9c2 Cells after Preincubation with the PDE2A Inhibitor BAY 60-7550
# The intracellular cGMP content in H9c2 cells was determined with the Biotrak (EIA) Immunoassay from Amersham (catalog No. RPN 226) in accordance with the manufacturer's protocol. […] The fluorescence is measured at 450/570 nm in a Tecan Spectrafluor photometer. […]
# [4] = tested on: PDE2A-mRNA in H9c2 rat cardiomyocytes; assay: Relative expression of PDE2A-RNA in H9c2 cells after arginine-vasopressin (real-time PCR); format: cell-based; details: Vasopressin 1 μM, 72 h, triplicate mean, control 159.73
# Description: For this purpose, the rat cardiomyocyte cell line H9c2 (ATCC number: CRL-1446) was exposed to a hypertrophic stimulus by arginine-vasopressin which is expressed inter alia in an increased expressed of marker genes for cardiac hypertrophy such as ANP (atrial natriuretic peptide) and MYHCB (myosin heavy chain beta-subunit). An increased expression of the cGMP-hydrolyzing PDE2A is able to reduce the intracellular cGMP level of the cardiomyocytes and thus suppress the antihypertrophic effect of cGMP [3,4]. […]
# as §1, with “value)]. […]” for “value)].”
structure (smiles),measurement,setting,value
"COc1ccc(Cc2nn3c(C(CCCc4ccccc4)C(C)O)nc(C)c3c(=O)[nH]2)cc1OC (stereo not shown) [BAY 60-7550, 2-(3,4-dimethoxybenzyl)-7-[1-(1-hydroxyethyl)-4-phenylbutyl]-5-methylimidazo[5,1-f][1,2,4]triazin-4(3H)-one]",Effect on vasopressin-induced increase of hypertrophy marker gene MYHCB (in words),"[1]; H9c2 cells, vasopressin stimulation, FIG. 2",dose-dependently suppresses the induction of the hypertrophy marker MYHCB by vasopressin; also recorded: dose-dependent suppression of the increase in the hypertrophy marker gene MYHCB
same,rE (expression of MYHCB relative to L32),"[1]; Vasopressin 1 μM + 0.1 μM BAY 60-7550, 72 h",9.00 and 15.89
same,MW (mean rE of MYHCB),"[1]; Vasopressin 1 μM + 0.1 μM BAY 60-7550, duplicate mean, vasopressin alone 17.23",12.44
same,MW (mean rE of MYHCB),"[1]; Vasopressin 1 μM + 1 μM BAY 60-7550, duplicate mean, vasopressin alone 17.23",8.54
same,rE (expression of MYHCB relative to L32),"[1]; Vasopressin 1 μM + 10 μM BAY 60-7550, 72 h",4.56 and 3.01
same,MW (mean rE of MYHCB),"[1]; Vasopressin 1 μM + 10 μM BAY 60-7550, duplicate mean, vasopressin alone 17.23",3.79
same,Effect on heart weight:body weight ratio (HW:BW) (in words),"[2]; BAY 60-7550 10 mg/kg i.p., 5 days, two groups, FIG. 4",able to suppress the isoprenaline-induced increase in heart weight almost as well as the positive control enalapril; also recorded: marked reduction in the ratio of the weight of the heart to the body weight
same,Effect on intracellular cGMP content (in words),[3],dose-dependently and synergistically increases the intracellular cGMP level; also recorded: dose-dependently increases the intracellular cGMP content
"NC(=O)CC[C@@H]1NC(=O)[C@H](Cc2ccccc2)NC(=O)[C@H](Cc2ccc(O)cc2)NC(=O)[C@@H](N)CSSC[C@@H](C(=O)N2CCC[C@H]2C(=O)N[C@@H](CCCN=C(N)N)C(=O)NCC(N)=O)NC(=O)[C@H](CC(N)=O)NC1=O [Vasopressin, arginine-vasopressin, reference compound]",rE (expression of MYHCB relative to L32),"[1]; Vasopressin 1 μM alone, 72 h, H9C2 cells",19.43 and 15.03
same,MW (mean rE of MYHCB),"[1]; Vasopressin 1 μM alone, 72 h, duplicate mean, control 0.50",17.23
same,MW (mean rE of PDE2A),[4],613.64
"CCOC(=O)[C@H](CCc1ccccc1)N[C@@H](C)C(=O)N1CCC[C@H]1C(=O)O [enalapril, reference compound]",Effect on heart weight:body weight ratio (HW:BW) (in words),"[2]; enalapril 10 mg/kg via drinking water, positive control",marked reduction in the ratio of the weight of the heart to the body weight
"CC(C)NCC(O)c1ccc(O)c(O)c1 (stereo not shown) [isoprenaline, reference compound]",Effect on heart weight in relation to body weight (in words),"[2]; isoprenaline 2 mg/kg/d s.c. alone, hypertrophic stimulus",increases the weight of the animal's heart in relation to the body weight

# Reference: patent US20100035882A1, “INHIBITION OF PDE2A” (priority 2006, published 2010)
